In patent US20140371258A1 (priority 2010, published 2014):
“Also recorded” adds a separate entry of the source. Read-outs that look alike come from different tables or passages of the source.

Columns and labels:
[1] = Maximum tolerated dose (tolerance) study, Q4D×3 iv; format: in vivo, female athymic NCr-nu/nu mice
[2] = test system: human NCI-H460 lung tumor; experiment: NCI-H460 lung tumor xenograft efficacy study; format: in vivo
Excerpt: The purpose of the study was to evaluate the antitumor efficacy of exemplary PEG topotecan conjugates along with unmodified topotecan when administered against subcutaneously (sc) implanted human NCI-H460 lung tumor xenografts in male athymic nude mice.
Six-weeks-old male athymic nude mice were purchased from Charles River (Wilmington, Mass.) and acclimated in the laboratories prior to experimentation. […] Cages were changed twice weekly.
Thirty-to-forty mg fragments of human NCI-H460 lung tumor were implanted sc in mice near the right axillary area using a 12-gauge trocar needle and allowed to grow.
On each day of injection, a 15.625 mg/mL solution of PEG-topotecan (the amount of PEG-topotecan being 31.25 times the topotecan dosage) was prepared in saline. A portion of this solution was diluted with saline to the lower concentrations. All three solutions were quite viscous. A 0.5 mg/mL solution of topotecan was prepared in saline on each day of treatment. Lower dosages were achieved by diluting this solution with saline. All dosing solutions were administered by exact body weight using an injection volume of 0.2 mL/10 g of body weight. Both PEG-topotecan and topotecan solutions were prepared in subdued light with PEG-topotecan injected within two hours of preparation and topotecan injected within 30 minutes of preparation.
The experiment consisted of six treatment groups of ten mice per group and one vehicle-treated control group also with ten mice for a total of 70 mice on the first day of treatment. Both PEG-topotecan and topotecan were administered intravenously (iv) as three injections given four days apart (q4d×3) at dosages of 10, 2.5, and 1 mg/kg/dose. The control group (group 1) was treated with the vehicle (saline), which was also administered iv q4d×3.
The study was terminated 55 days after tumor implantation. Any animal whose tumor became ulcerated or reached 4,000 mg was euthanized prior to study termination.

Single-dose MTD study = experiment: Single-dose MTD study; parameters: species or system mice; conditions: mouse, in vivo, intravenous, topotecan-equivalent
[3] = test system: human NCI-H460 lung tumor; experiment: H460 tumor growth after a single IV administration; format: in vivo; conditions: single iv injection at each compound's MTD; FIG. 7
Experimental: Six-weeks-old female athymic nude mice were purchased from Charles River (Wilmington, Mass.) and acclimated in the laboratories prior to experimentation. […] The animals were observed daily and clinical signs were noted.
Thirty-to-forty mg fragments of human NCI-H460 lung tumor were implanted sc in mice near the right axillary area using a 12-gauge trocar needle and allowed to grow. The day of tumor implantation was designated as day −7. Tumors were allowed to reach 100-234 mg in weight (100-234 mm^3 in size) before the start of treatment. A sufficient number of mice were implanted so that tumors in a weight range as narrow as possible were selected for the trial on the day of treatment initiation (day 7 after tumor implantation). […]
The experiment consisted of 3 treatment groups of 36 mice per group plus an untreated group of 3 mice for a total of 39 mice on the day of treatment. […] The above ‘topotecan-equivalent’ concentrations were calculated based on the topotecan content for each compound. […]
The sc tumors were measured and the animals were weighed twice weekly starting with the first day of treatment. Tumor volume was determined by caliper measurements (mm) and using the formula for an ellipsoid sphere: L×W^2/2=mm^3, where L and W refer to the larger and smaller perpendicular dimensions collected at each measurement. […]

[4] = mouse, in vivo, iv
Experimental: (§1) The experiment consisted of 3 treatment groups of 36 mice per group plus an untreated group of 3 mice for a total of 39 mice on the day of treatment. […] The above ‘topotecan-equivalent’ concentrations were calculated based on the topotecan content for each compound. […] At intervals (0.5, 1, 2, 4, 8, 12, 24, 72, 120, 168, 216 hr) following drug administration, 3 animals per treatment group were sacrificed, blood collected via cardiac puncture, and tumor tissue was excised. Tumor tissue was flash frozen and stored at −80° C. until analysis. Blood was processed to obtain plasma and stabilizers added as described for PK studies in beagle dogs. Samples were frozen and stored at −80° C. until analysis.
(§2) Plasma and tumor-tissue were analyzed by LC/MS-MS for topotecan. Data was reported as ng/mL for plasma samples and ng/mg for tumor samples.

in vivo = conditions: mouse, iv
Experimental: as §1, §2

[5] = humans, cited from earlier work
HT29 human colon tumor = experiment: HT29 colorectal cancer xenograft efficacy study; conditions: for Non-Specific Deaths / Regressions (100%) / Tumor Free on Day 99: 10 animals per group; for Growth Delay (T-C): based on median days to 1000 mg
Excerpt: Six-weeks-old female athymic NCr-nu/nu mice were purchased from Charles River Laboratories, Inc. (Wilmington, Mass.) and acclimated in the laboratories for nine days prior to experimentation. The mice were housed in microisolator cages, up to five animals per cage. Each animal in the cage was identified by an ear punch. All mice were on a 12-hour light/dark cycle and received filtered municipal water and sterilizable rodent diet (Harlan-Teklad TD8656) ad libitum. Cages were changed twice weekly. The animals were observed daily and clinical signs were noted.
Thirty-to-forty mg fragments of HT29 human colon tumor, propagated in an in vivo passage, were implanted sc on the right flank area of mice using a12-gauge trocar needle. The day of tumor implantation was designated as Day 0. […] A sufficient number of mice were implanted so that animals with tumors in a weight range as narrow as possible were selected for the trial on the day of treatment initiation (Day 14 after tumor implantation). Those animals selected with tumors in the proper size range on Day 14 were placed in several large cages and then assigned randomly to the various treatment groups.
The lower dosage was achieved by further dilution with saline. The dosing solutions were treated as light-sensitive (formulated under amber lights and dispensed into brown bottles), stored at room temperature, and administered within 2 h of formulation. […] The lower dosage was achieved by further dilution with saline. The dosing solutions were treated as light-sensitive (formulated under amber lights and dispensed into brown bottles), were stored at room temperature, and were administered within 2 h of formulation. Topotecan was prepared at a concentration of 1.0 mg/mL on each day of treatment in saline. The lower dosages were achieved by further dilutions with saline. The dosing solutions were treated as light-sensitive (formulated under amber lights and dispensed into brown bottles), were kept on ice, and were administered within 30 min of formulation. Saline was obtained from Phoenix Pharmaceutical, Inc.
The study consisted of a vehicle-treated control group and seven treatment groups with ten mice each for a total of 80 mice at the start of treatment. […] The control group was treated intravenously with saline on the same treatment schedule. All treatments were administered by exact body weight with the injection volume being 0.2 mL/10 g of body weight.
Tumors were measured (the limit of detection being 32 mg (4×4 mm)) and the animals were weighed twice weekly starting with the first day of treatment. Tumor volume was determined by caliper measurements (mm) and using the formula for an ellipsoid sphere: L×W^2/2=mm^3, where L and W refer to the larger and smaller perpendicular dimensions collected at each measurement. This formula is also used to calculate tumor weight, assuming unit density (1 mm^3=1 mg). Individual tumor and body weight measurements were collected.
Number of non-specific deaths, number of complete tumor regressions, number of tumor-free survivors on Day 99, and median number of days for the tumors in each group to reach 1,000 mg were calculated. The median time (in days) to reach 1,000 mg was used in the calculation of the overall delay in the growth of the median tumor (T-C; T=treated group; C=control group). Individual tumor weights, group median tumor weights, TIC (%) based on median tumor weights, group mean tumor weights, standard error of the mean tumor weights, the time for the individual animal's tumor to reach 1,000 mg, individual body weights, mean body weights, and the change in mean body weights relative to the mean body weight on the first day of collection (in grams and as a percent) were collected.

With `CC[C@@]1(O)C(=O)OCc2c1cc1n(c2=O)Cc2cc3c(CN(C)C)c(O)ccc3nc2-1` [topotecan, (S)-10-[(dimethylamino)methyl]-4-ethyl-4,9-dihydroxy-1H-pyrano[3′,4′:6,7]indolizino[1,2-b]quinoline-3,14(4H,12H)-dione] the “maximum average body weight loss” value ([1]; iv Q4D×3, 5 mg/kg/inj) was 0%, the “maximum average body weight loss” value ([1]; iv Q4D×3, 10 mg/kg/inj) was 0% and the “maximum tolerated dosage (MTD)” value ([1]; iv Q4D×3, not more than 10% deaths, no more than 20% average body weight loss) was 15 mg/kg/inj. The deaths ([1]; non-tumor-bearing mice, iv Q4D×3, dosages of 15, 10, and 5 mg/kg/inj) was “no deaths; also recorded: without deaths”, the “growth delay compared with PEG-topotecan at the same dosage” value ([2]; 1.0 mg/kg/dose) was “significantly greater” and the deaths ([2]; 1.0 mg/kg/dose iv q4d×3) was “without deaths”. For the same molecule, the deaths ([2]; 2.5 mg/kg/dose iv q4d×3) was “without deaths”, the deaths ([2]; 10 mg/kg/dose iv q4d×3) was “one” and the MTD (Single-dose MTD study) was 20 mg/kg. The “tumor growth inhibition / delay” value [3] was “only minimal tumor growth delay; also recorded: delayed modestly”, the “detectability of topotecan in plasma” value [4] was “undetectable beyond 24 hr post-injection” and the concentration at 5 day (in vivo) was less than 1000 ng/g. For the same molecule, the “biological half life t1/2” value ([5]; 30 min iv) was 2.8 hours, the “Median Days to 1000 mg” value (HT29 human colon tumor; 7.5 mg/kg/inj iv Q4Dx3(14)) was 38.5 days and the “Non-Specific Deaths” value (HT29 human colon tumor; 7.5 mg/kg/inj iv Q4Dx3(14)) was 0. The “Regressions (100%)” value (HT29 human colon tumor; 7.5 mg/kg/inj iv Q4Dx3(14)) was 0, the “Tumor Free on Day 99” value (HT29 human colon tumor; 7.5 mg/kg/inj iv Q4Dx3(14)) was 0 and the “Growth Delay (T-C)” value (HT29 human colon tumor; 7.5 mg/kg/inj iv Q4Dx3(14)) was 4.4 days. For the same molecule, the “Median Days to 1000 mg” value (HT29 human colon tumor; 15 mg/kg/inj iv Q4Dx3(14)) was 46.8 days, the “Non-Specific Deaths” value (HT29 human colon tumor; 15 mg/kg/inj iv Q4Dx3(14)) was “two” and the “Regressions (100%)” value (HT29 human colon tumor; 15 mg/kg/inj iv Q4Dx3(14)) was 0. The “Tumor Free on Day 99” value (HT29 human colon tumor; 15 mg/kg/inj iv Q4Dx3(14)) was 0, the “Non-Specific Deaths” value (HT29 human colon tumor; 15 mg/kg/inj iv Q4Dx3(14), listed as Top) was 2 and the “Growth Delay (T-C)” value (HT29 human colon tumor; 15 mg/kg/inj iv Q4Dx3(14)) was 12.7 days. For the same molecule, the “Median Days to 1000 mg” value (HT29 human colon tumor; 20 mg/kg/inj iv Q4Dx3(14)) was 49.9 days, the “Non-Specific Deaths” value (HT29 human colon tumor; 20 mg/kg/inj iv Q4Dx3(14)) was “two” and the “Regressions (100%)” value (HT29 human colon tumor; 20 mg/kg/inj iv Q4Dx3(14)) was 0. For the same molecule, the “Tumor Free on Day 99” value (HT29 human colon tumor; 20 mg/kg/inj iv Q4Dx3(14)) was 0, the “Non-Specific Deaths” value (HT29 human colon tumor; 20 mg/kg/inj iv Q4Dx3(14), listed as Top) was 2 and the “Growth Delay (T-C)” value (HT29 human colon tumor; 20 mg/kg/inj iv Q4Dx3(14)) was 15.8 days. The “inhibition of growth of HT29 human colon tumor xenografts” value (HT29 human colon tumor; dosage of 7.5 mg/kg/inj iv Q4D×3) was “minimally effective” and the “inhibition of growth of HT29 human colon tumor xenografts” value (HT29 human colon tumor; dosages of 20 and 15 mg/kg/inj iv Q4D×3) was “effective”.

For camptothecin sodium, the “biological half life t1/2” value ([5]; bolus iv) is listed as 15.3 hours.
